This is an account of results in patent publication US7700111B2, “Auditory nerve protection and re-growth” (The Regents of the University of Michigan, priority 2002, dated 2010).

“Also recorded” adds a separate entry of the source.

Assay type in all cases: in vivo, guinea pig
Test [1] deals with cochlear vasculature. Briefly: Cochlear blood flow (laser Doppler), blood pressure and vascular conductance after 8-iso-PGF2a / SQ29,548 infusion. As to conditions: for blood pressure (BP) response / cochlear blood flow (CBF) response: after administration, dose series; for cochlear vascular conductance (VC = CBF/BP) response: intravenous infusion. As for the experimental part: (§1) The infusion rate was controlled by a syringe pump. Systemic infusions were achieved via a cannula inserted in the right jugular vein. Changes in cochlear blood flow (CBF) were measured with the fine probe of a laser Doppler flowmeter (LDF) placed on the bony surface of the cochlea. Arterial blood pressure (BP) and heart rate were monitored from a cannula in the right carotid artery. BP and CBF were continuously recorded, as was their ratio (CBF/BP) as a derived measure of cochlear vascular […] (VC). The results are shown if FIGS. 10-18.

Test [2] relates to cochlear vasculature. Briefly: Noise-induced cochlear vasoconstriction (120 dB, one hour). The note with it: given intraperitoneally 1 hour before noise exposure. As for the experimental part: as §1
Three guinea pigs were exposed to high intensity (120 dB) noise for one hour (6×10 min, red lines in top panel). BP, CBF, and VC measurements were made during 2-min off-noise periods. Over the course of the exposure, there was pronounced vasoconstriction (VC) and decrease in cochlear blood flow (CBF), while BP remained stable (mean±SD).
Noise exposure was as in FIG. 15. However, when the antioxidant glutathione-monoethyl ester (GSHE) was given intraperitoneally 1 hour before noise exposure, the effect of noise on CBF and VC was eliminated.

The nature of test [3]: Noise-induced permanent ABR threshold shift. The note with it: 10 days after 4 kHz octave band noise, 115 dB SPL, 5 hours; 2, 4, 8, 16, 20 kHz; drug i.p. 30 min before noise; versus 0.9% NaCl. As for the experimental part: (§2) Each animal received a drug dose before either being noise-exposed for 5 hours or simply placed in the exposure chamber for 5 hours. Auditory brain stem responses (ABR) were measured 2 days before and 10 days after noise exposure or sham exposure. Immediately after the second ABR measurement, animals were sacrificed for histological examination or for measurement of 8-isoprostane.
(§3) Animals were assigned to one of 17 groups (see Table 3). Eight groups were used to assess the effects of these agents on noise-induced threshold (auditory brain stem response, ABR) sensitivity and hair cell damage (cytocochleogram). Nine groups were used to determine the effects on noise-induced lipid peroxidation. Groups were injected intraperitoneally with 5 ml/kg of 0.9% NaCl, 0.2 mg/ml (+)-MK-801, 0.2 mg/ml (−)-MK-801, 0.2 mg/ml L-NAME, 100 mg/ml NAC, or a mixture of 0.2 mg/ml (+)-MK-801 and 100 mg/ml NAC 30 min before being placed in the exposure chamber. Because of the high clearance of PD 174494, one group of animals received 5 ml/kg of 2 mg/ml PD 174494 intraperitoneally 30 min before and 2 hr into noise exposure. A control group received 5 ml/kg of 0.9% NaCl on the same time schedule.
Animals were anesthetized with xylazine (10 mg/kg) and ketamine (40 mg/kg) given intramuscularly. A differential active needle electrode was placed subcutaneously below the test ear and a reference electrode at the vertex. A ground electrode was positioned below the contralateral ear. The sound stimuli consisted of 15 ms tone bursts, with a rise-fall time of 1 ms at frequencies of 2, 4, 8, 16 and 20 kHz, and were generated using a Fordham Audio Generator (Model AG-298, Fordham Radio Supply, Hauppauge N.Y.). They were presented to the right external auditory meatus in a closed acoustic system through an ear bar connected to a transducer (Beyer DT-48, Beyer Dynamic, Farmingdale N.Y.). The sound intensity was varied by 5 dB intervals. One thousand twenty-four tone presentations given at the rate of 9 s^−1 were averaged using a microcomputer and custom software to obtain a waveform. Hearing threshold was defined by the consistent appearance of ABR peaks III or IV. Test/retest reliability was within 5 dB. After the second ABR measurement, the cochleae were harvested.
Animals were exposed to noise in a lighted and ventilated sound exposure chamber while having free access to food and water. The sound chamber was fitted with speakers driven by a noise generator and a power amplifier. Using a ½-inch Brūel and Kjaer condenser microphone and Fast Fourier Transform analyzer, sound levels were measured and calibrated at multiple locations within the sound chamber to ensure uniformity of the stimulus. The stimulus intensity varied by a maximum of 3 dB across measured sites within the exposure chamber. […]

Test [4] concerns outer and inner hair cells. Kind of test: Hair cell count (cytocochleogram) after noise exposure. The note with it: for hair cell loss: hair cell type not specified; for inner hair cell loss / outer hair cell loss: region 9-13 mm from apex, 10 days after noise, versus 0.9% NaCl. As for the experimental part: as §2, §3
(§4) Animals were exposed to noise in a lighted and ventilated sound exposure chamber while having free access to food and water. The sound chamber was fitted with speakers driven by a noise generator and a power amplifier. Using a ½-inch Brūel and Kjaer condenser microphone and Fast Fourier Transform analyzer, sound levels were measured and calibrated at multiple locations within the sound chamber to ensure uniformity of the stimulus. The stimulus intensity varied by a maximum of 3 dB across measured sites within the exposure chamber. Animals were individually subjected to 4 kHz octave band noise, 115 dB SPL for 5 hours. Two hours after initiation, noise exposure was interrupted for 10 min to perform the second injection of 0.9% NaCl or PD 174494 in groups requiring it.
Animals were sacrificed under deep anesthesia. The bullae were quickly removed and transferred into 4% paraformaldehyde in 0.01 M phosphate-buffered saline (PBS)(pH 7.4). The bone near the apex, round window, and oval window was opened, followed by two gentle local perfusions from the apex with 1 ml of 4% paraformaldehyde each. The tissue was kept in the fixative for 12 hr. After removal of the bony capsule and the lateral wall tissues, the modiolar core including the organ of Corti was removed from the temporal bone. Following permeabilization with 0.3% Triton X-100 for 10 min, whole-mounts of the organ of Corti were stained for actin with fluorescent phalloidin for 30 min to outline hair cells and their stereocilia for a quantitative assessment (Raphael and Altschuler, Hear. Res., 31:173 [1991]). Slide preparations were observed under fluorescence microscopy and missing (as shown by scar formation) and present (as shown by intact stereocilia) hair cells in the sensory epithelium were counted from the apex to the base in 0.19 mm segments. Percent hair cell loss was calculated for each segment. A group mean cytocochleogram was created by averaging the loss at each segment. Differences were evaluated for statistical significance on the basis of data from the region 9-13 mm from apex, the region of greatest damage in a previous study (Ohinata et al., Hear. Res. 146: 28 [2000]).

Test [5] relates to 8-isoprostane. Kind of test: Cochlear 8-isoprostane (lipid peroxidation) by enzyme immunoassay after noise exposure. The note with it: for 8-isoprostane level in the lateral wall / 8-isoprostane level in the modiolar core / 8-isoprostane level in the organ of Corti: after noise exposure, versus 0.9% NaCl. As for the experimental part:
as §2, §3, §4
Animals were anesthetized with xylazine (10 mg/kg) and ketamine (40 mg/kg) given intramuscularly and decapitated. The auditory bullae were removed and the bony capsule of the cochlea was immediately opened.
Guinea pig cochleae were dissected in ice-cold Hanks' balanced salt solution (HBSS, Gibco Laboratories, Grand Island, N.Y.: 1.25 mM CaCl2, 5.55 mM glucose, 0.81 mM MgSO4, 0.44 mM KH2PO4, 136.9 mM NaCl, 0.34 mM Na2HPO4, 5.4 mM KCl, 5.0 mM sodium HEPES, with pH titrated to 7.4 (with NaOH) and osmolality adjusted to 300±1 mOsm with NaCl). Lateral wall tissues (spiral ligament and stria vascularis) and organ of Corti were removed from the modiolar core. The tissues were transferred to a 0.05% dl-dithiothreitol solution to prevent auto-oxidation of arachidonic acid and homogenized with a homogenizer for 30 sec. The homogenate was centrifuged at 7,200×g for 15 min at 4° C. Proteins were measured in aliquots of the supernatant by the Bradford method (Bradford, Anal. Biochem. 72: 248 [1976]). Butyl hydroxytoluene was added to the supernatant to a concentration of 0.1%, followed by 200 μl of ethanol and another homogenization. The homogenate was centrifuged at 1,500×g for 10 min at 4° C. Two hundred μl of 15% KOH was added to the supernatant for determination of the levels of free and esterified 8-isoprostane, and the mixture was incubated at 40° C. for 1 hr. The solution was then acidified to pH 3 with HCl. The samples were applied to octadecylsilyl silica columns pre-activated with methanol and distilled water and subsequently washed with distilled water and then with hexane. 8-isoprostane was eluted with ethyl acetate containing 1% methanol, and the eluate was evaporated under N2 to dryness. The samples were dissolved in 30 μl of acetone and spotted on silica gel G thin layer chromatography plates, which were developed in chloroform/methanol/acetic acid/water (80:18:1:0.8, v/v). 8-isoprostane was located from the Rf of standards run on the same plate and visualized by spraying with 3.5% phosphomolybdic acid. […]

The mark [6] stands for this setting: AICA infusion of ~25 μg/kg over 2 min, minimal BP change.

Consider `CCCCC[C@H](O)/C=C/[C@@H]1[C@H](C/C=C\CCCC(=O)O)[C@@H](O)C[C@H]1O` [8-iso-PGF2a, 8-iso-prostaglandin F2a], for which the “BP during AICA infusion” value in test [1] (2 min AICA infusion, some of the subjects) was “no significant elevation in BP”. In addition, in test [1] (setting [6]), the “decrease in CBF” value was 25-30% and the “decrease in VC” value is recorded as 25-30%. Besides, in test [1], the “blood pressure (BP) response” value is “increasing response”, the “cochlear blood flow (CBF) response” value is on record as “increasing response” and the “cochlear vascular conductance (VC = CBF/BP) response” value was “dose-dependent constriction of the cochlear vasculature; also recorded: Strong concentration-dependent decrease; also recorded: clear dose-dependent decrease”. In test [1] (listed as 8-isoPGF2a), the “blood pressure (BP) response” value is “rapid and concentration-dependent change”; the “cochlear blood flow (CBF) response” value is “rapid and concentration-dependent change”; the “cochlear vascular conductance (VC = CBF/BP) response” value was “strong dose-dependent decrease”. In addition, the “dose at which the VC decrease approaches saturation” value in test [1] (intravenous, mean maximum VC response 1.5-2.5 min after infusion initiation) was “approximately 30 mg/kg”. The “BP, CBF and VC response to AICA infusion” value in test [1] (sequential 1.25 min infusions via AICA, or 2 min AICA infusion) was “no significant response to the lower two doses; also recorded: dose-dependent constriction of the cochlear vasculature; also recorded: local vasoconstrictive response”.

Turning to `CCOC(=O)CNC(=O)[C@H](CS)NC(=O)CC[C@H](N)C(=O)O` [GSHE, glutathione-monoethyl ester], in test [2], the “effect of noise on CBF” value is reported as “eliminated” and the “effect of noise on VC” value is “eliminated”.

In the case of `COC(=O)[C@@H](N)CCCNC(=N)N[N+](=O)[O-]` [L-NAME, L-N^ω-Nitroarginine methyl ester], the “noise-induced ABR threshold shift” value in test [3] is “significantly attenuated at 2 kHz; also recorded: increased at 20 kHz; also recorded: not threshold shift”. In test [4], the hair cell loss result is listed as “had no effect”, the “inner hair cell loss” value is on record as “increased” and the “outer hair cell loss” value is reported as “not affected”. Besides, in test [5], the “8-isoprostane level in the lateral wall” value was “suppressed; also recorded: decreased 8-isoprostane level”, the “8-isoprostane level in the modiolar core” value was “suppressed” and the “8-isoprostane level in the organ of Corti” value is on record as “decreased 8-isoprostane level in the organ of Corti”.

For `CC(=O)N[C@@H](CS)C(=O)O` [NAC, N-acetylcysteine], the “noise-induced ABR threshold shift” value in test [3] is “significantly attenuated threshold shifts at all frequencies”. Besides, in test [4], the hair cell loss entry is recorded as “successful in preventing hair cell loss”, the “inner hair cell loss” value was “attenuated; also recorded: some protective effect” and the “outer hair cell loss” value was “attenuated”. For the same molecule, in test [5], the “8-isoprostane level in the lateral wall” value is reported as “attenuated”, the “8-isoprostane level in the modiolar core” value was “attenuated” and the “8-isoprostane level in the organ of Corti” value was “attenuated”.

As for `Cc1ccc(CC2(O)CCN(CCOc3ccc(O)cc3)CC2)cc1` [PD 174494], the “noise-induced ABR threshold shift” value in test [3] was “significantly attenuated noise-induced hearing loss at 2, 4 and 8 kHz; also recorded: decreased threshold shift”. In test [4], the “inner hair cell loss” value is “protected only inner hair cells” and the “outer hair cell loss” value is “protected only inner hair cells”. For the same molecule, the “inner hair cell loss” value in test [4] (listed as PD 174474) is recorded as “some protective effect”. For the same molecule, in test [5], the “8-isoprostane level in the lateral wall” value is given as “did not influence”, the “8-isoprostane level in the modiolar core” value is “suppressed” and the “8-isoprostane level in the organ of Corti” value was “suppressed; also recorded: less with PD 174494 than with the other treatments”. Besides, the “effect on 8-isoprostane formation relative to that of (+)-MK-801” value in test [5] (organ of Corti and modiolar core) was “about half”.

Regarding `O=C(O)CCC/C=C\C[C@@H]1[C@H](CNNC(=O)Nc2ccccc2)[C@H]2CC[C@@H]1O2` [SQ29,548], the “decrease in cochlear vascular constriction” value in test [1] (35 mg/kg 8-iso-PGF2a i.v. before and after AICA infusion of antagonist, two subjects) came out at 12%. Further, the “effect on vasoconstriction (VC) by isoPGF2a” value in test [1] (addition of the antagonist) was “blocked”. Also, in test [1] (continuous AICA infusion of antagonist, 8-iso-PGF2a about 75-95 mg/kg i.v. over 20 sec, three subjects), the “maximum mean VC value during SQ29,548 infusion, less than after the initial 8-iso-PGF2a infusion” value is 8-10%.

As for (+)-MK-801, in test [3], the “noise-induced ABR threshold shift” value is on record as “significantly attenuated threshold shifts at all frequencies; also recorded: decreased threshold shift”. Besides, in test [4], the hair cell loss entry is “successful in preventing hair cell loss”, the “inner hair cell loss” value is on record as “attenuated; also recorded: some protective effect” and the “outer hair cell loss” value is “attenuated”. Further, in test [5], the “8-isoprostane level in the lateral wall” value is “did not influence”, the “8-isoprostane level in the modiolar core” value is reported as “attenuated” and the “8-isoprostane level in the organ of Corti” value was “attenuated”.

Take (−)-MK-801: in test [4], the “inner hair cell loss” value is listed as “not affected” and the “outer hair cell loss” value was “decreased”. In test [5], the “8-isoprostane level in the lateral wall” value is on record as “did not affect”, the “8-isoprostane level in the modiolar core” value is listed as “did not affect” and the “8-isoprostane level in the organ of Corti” value was “did not affect”.
